Experiments:
dopamine (D2) receptor = conditions: ref Kumagai et al., 2000; cited from earlier work
sigma1 receptor [1] = target: T1, sigma1 receptor (Cavia porcellus, UniProt Q60492); experiment: Inhibition of [3H]-; type: binding; conditions: HEK-293 homogenates S1,SK1; 2 mM ATP, 5 mM MgCl2; concentrations as high as 100 µM
[2] = target: T2, sigma1 receptor in guinea pig liver membranes (Cavia porcellus, UniProt Q60492); experiment: Competition binding of [3H]-
[3] = target: T2, sigma1 receptor in guinea pig liver membranes; experiment: Saturation equilibrium binding of [3H]-; conditions: saturation binding and Scatchard transformation
sigma2 receptor = target: T3, sigma2 receptor (Rattus norvegicus, UniProt Q5U3Y7); experiment: Sigma2 receptor binding with [3H]-DTG on rat liver membranes, 100 nM; conditions: 100 nM (+)-pentazocine
T3 sequence (Q5U3Y7 1-176): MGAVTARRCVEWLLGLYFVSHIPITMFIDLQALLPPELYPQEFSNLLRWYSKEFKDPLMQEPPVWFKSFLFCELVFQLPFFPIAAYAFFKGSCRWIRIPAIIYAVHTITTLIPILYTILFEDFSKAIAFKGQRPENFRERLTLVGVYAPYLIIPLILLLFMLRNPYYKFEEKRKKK

[4] = target: T4, purified guinea pig sigma1 receptor (Cavia porcellus, UniProt Q60492); experiment: Competition binding of [3H]-; conditions: for inhibition of [3H]-(+)-pentazocine binding to the sigma1 receptor: Fig. 2A, 2B
sigma1 receptor [5] = target: T1, sigma1 receptor; experiment: Inhibition of [3H]-; type: binding
pure sigma1 receptor = pure sigma1 receptor (Cavia porcellus, UniProt Q60492); conditions: for inhibition of [125I]Iodoazidococaine photolabeling: 10 µM compound, 1 nM photoprobe; for relative inhibition of [125I]-Iodoazidococaine photolabeling: compounds at 0.1 µM, 1 µM and 10 µM
[6] = target: T2, sigma1 receptor in guinea pig liver membranes; conditions: ref Moebius et al., 1997; Ramachandran et al., 2007; cited from earlier work
[7] = target: T4, purified guinea pig sigma1 receptor; conditions: ref Moebius et al., 1997; Ramachandran et al., 2007; cited from earlier work

T2 sequence (Q60492 whole entry): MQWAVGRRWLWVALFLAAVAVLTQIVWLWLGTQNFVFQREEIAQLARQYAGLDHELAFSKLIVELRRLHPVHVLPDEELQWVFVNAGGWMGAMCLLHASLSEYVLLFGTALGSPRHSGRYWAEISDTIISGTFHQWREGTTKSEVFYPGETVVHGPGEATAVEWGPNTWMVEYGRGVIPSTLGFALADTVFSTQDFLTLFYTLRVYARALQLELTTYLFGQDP
T4 sequence (Q60492 whole entry): as above
Chain of pure sigma1 receptor (Q60492 whole entry): as above
T1 sequence (Q60492 whole entry): as above

Molecule	affinity for the sigma2 receptor (sigma2 receptor)	inhibition of [125I]Iodoazidococaine photolabeling (pure sigma1 receptor)	relative inhibition of [125I]-Iodoazidococaine photolabeling (pure sigma1 receptor)	inhibition of [3H]-(+)-pentazocine binding to the sigma1 receptor [4]	other results
CCCCCCC[C@@H]1CC[C@@H](CCCC)N1 [(2R-trans)-2-Butyl-5-heptylpyrrolidine]	–	–	–	–	affinity for the dopamine (D2) receptor (dopamine (D2) receptor): high affinity
CCCCCCCCCCCCC/C=C/[C@@H](O)[C@@H](N)CO [D-erythro-sphingosine]	much lower binding affinity	inhibition of photolabeling	–	–	inhibition of [3H]-(+)-pentazocine binding (sigma1 receptor [1]): did not show a significant inhibition; Ki [2]: 13 ± 3.1 µM; mode of inhibition of [3H]-(+)-pentazocine binding [3]: simple competitive interaction; Ki [4]: 140 ± 20 nM; Ki (sigma1 receptor [5]): 3.6 ± 0.6 µM
CCCCCCCCCCCCC/C=C/[C@H](O)[C@@H](N)CO [L-threo-sphingosine]	–	–	–	–	fold more potent at the pure sigma1 receptor than the naturally occurring isomer ([4]; L-threo compared to naturally occurring isomer): approximately 10 fold
CCCCCCCCCCCCC/C=C/[C@@H](O)[C@H](CO)N(C)C [N, N dimethyl sphingosine]	much lower binding affinity	inhibition of photolabeling	marginally better than D-erythro sphingosine	–	–
CCCCCCCCCCCCN [dodecylamine]	–	–	–	–	Ki [4]: 183 ± 17 nM
CCCCCCCCCCCCCCC[C@@H](O)[C@@H](N)CO [sphinganine]	much lower binding affinity	–	–	–	–
CCCCCCCCCCCCC/C=C/[C@@H](O)[C@@H](N)COP(=O)(O)O [sphingosine-1 phosphate]	did not bind	did not show significant inhibition	not as effective	failed to do so	–
CCCCCCCCCCCCCN1CC(C)OC(C)C1 (stereo not drawn) [tridemorph]	–	–	–	–	affinity for the sigma1 receptor in guinea pig liver membranes [6]: high affinity; affinity on the pure sigma1 receptor [7]: high affinity
ceramide	–	–	not as effective	failed to inhibit	–
ceramide-1 phosphate	–	–	not as effective	failed to inhibit	–

Reference: publication PMC3194046 (European journal of pharmacology, 2009)
